Laboratory results from US11040962B2, “Pesticidally active pyrazole derivatives” (SYNGENTA PARTICIPATIONS AG, priority 2017, dated 2021).

Key:
Spodoptera littoralis = Spodoptera littoralis (Egyptian cotton leaf worm) cotton leaf disc spray test; format: in vivo; conditions: foliar, 72 h, application rate 200 ppm, L1 larvae, 3 days after infestation, vs untreated, read-out: control (at least one of mortality, anti-feedant effect, growth inhibition)
Procedure: Spodoptera littoralis (Egyptian Cotton Leaf Worm)
Cotton leaf discs were placed on agar in 24-well microtiter plates and sprayed with aqueous test solutions prepared from 10′000 ppm DMSO stock solutions. After drying the leaf discs were infested with five L1 larvae. The samples were assessed for mortality, anti-feedant effect, and growth inhibition in comparison to untreated samples 3 days after infestation. Control of Spodoptera littoralis by a test sample is when at least one of mortality, anti-feedant effect, and growth inhibition is higher than the untreated sample.

Diabrotica balteata = Diabrotica balteata (corn root worm) maize sprout spray test; format: in vivo; conditions: 96 h, application rate 200 ppm, L2 larvae, 4 days after infestation, vs untreated, read-out: effect in at least one of the two categories (mortality or growth inhibition)
Procedure: Diabrotica balteata, (Corn Root Worm)
Maize sprouts, placed on an agar layer in 24-well microtiter plates were treated with aqueous test solutions prepared from 10′000 ppm DMSO stock solutions by spraying. After drying, the plates were infested with L2 larvae (6 to 10 per well). The samples were assessed for mortality and growth inhibition in comparison to untreated samples 4 days after infestation. The following compounds gave an effect of at least 80% in at least one of the two categories (mortality or growth inhibition) at an application rate of 200 ppm: 1, 2, 3, 4, 7, 8, 9, 11, 12, 13, 14, 15, 16, 17, 18, 19, 20, 21, 27, 28 and 29.

Tetranychus urticae = Tetranychus urticae (two-spotted spider mite) bean leaf disc spray test; format: in vivo; conditions: foliar, 192 h, application rate 200 ppm, 8 days after infestation, read-out: mortality on mixed population (mobile stages)
Procedure: Tetranychus urticae (Two-Spotted Spider Mite):
Bean leaf discs on agar in 24-well microtiter plates were sprayed with aqueous test solutions prepared from 10′000 ppm DMSO stock solutions. After drying the leaf discs were infested with a mite population of mixed ages. The samples were assessed for mortality on mixed population (mobile stages) 8 days after infestation.

Thrips tabaci = Thrips tabaci (onion thrips) sunflower leaf disc spray test; format: in vivo; conditions: foliar, 144 h, application rate 200 ppm, population of mixed ages, 6 days after infestation
Procedure: Thrips tabaci (Onion Thrips):
Sunflower leaf discs were placed on agar in 24-well microtiter plates and sprayed with aqueous test solutions prepared from 10′000 ppm DMSO stock solutions. After drying the leaf discs were infested with a Thrips population of mixed ages. The samples were assessed for mortality 6 days after infestation.

Euschistus heros = Euschistus heros (neotropical brown stink bug) soybean leaf spray test; format: in vivo; conditions: 120 h, application rate 200 ppm, N2 nymphs, 5 days after infestation, vs untreated, read-out: effect in at least one of the two categories (mortality or growth inhibition)
Procedure: Euschistus heros (Neotropical Brown Stink Bug)
Soybean leaves on agar in 24-well microtiter plates were sprayed with aqueous test solutions prepared from 10′000 ppm DMSO stock solutions. After drying the leaves were infested with N2 nymphs. The samples were assessed for mortality and growth inhibition in comparison to untreated samples 5 days after infestation. The following compounds gave an effect of at least 80% in at least one of the two categories (mortality or growth inhibition) at an application rate of 200 ppm: 1, 2, 3, 7, 8, 9, 12, 13, 14, 15, 17, 18, 21, 25, 26, 27, 28 and 29.

Plutella xylostella = Plutella xylostella (diamond back moth) artificial diet test; format: in vivo; conditions: 120 h, application rate 200 ppm, L2 larvae, 5 days after infestation, vs untreated, read-out: effect in at least one of the two categories (mortality or growth inhibition)
Procedure: Plutella xylostella (Diamond Back Moth):
24-well microtiter plates with artificial diet were treated with aqueous test solutions prepared from 10′000 ppm DMSO stock solutions by pipetting. After drying, the plates were infested with L2 larvae (10 to 15 per well). The samples were assessed for mortality and growth inhibition in comparison to untreated samples 5 days after infestation. The following compounds gave an effect of at least 80% in at least one of the two categories (mortality or growth inhibition) at an application rate of 200 ppm: 1, 2, 3, 4, 7, 8, 9, 10, 11, 12, 13, 14, 15, 16, 17, 18, 19, 20, 21, 22, 23, 24, 26, 27, 28 and 29.

**Q.** What does the source list for `CCN(C(=O)c1cc(-c2cc(-c3c(C(F)(F)F)c(C(F)(F)C(F)(F)F)nn3C)no2)sc1C#N)C1CC1` [Compound 15, 2-cyano-N-cyclopropyl-N-ethyl-5-[3-[2-methyl-5-(1,1,2,2,2-pentafluoroethyl)-4-(trifluoromethyl)pyrazol-3-yl]isoxazol-5-yl]thiophene-3-carboxamide]?
**A.** percent control (mortality, anti-feedant effect or growth inhibition) at 200 ppm (Spodoptera littoralis): ≥ 80%; percent effect (mortality or growth inhibition) at 200 ppm (Diabrotica balteata): ≥ 80%; mortality at 200 ppm (Tetranychus urticae): ≥ 80%; mortality at 200 ppm (Thrips tabaci): ≥ 80%; percent effect (mortality or growth inhibition) at 200 ppm (Euschistus heros): ≥ 80%; percent effect (mortality or growth inhibition) at 200 ppm (Plutella xylostella): ≥ 80%

**Q.** With `CN(C(=O)c1cc(-c2cc(-c3c(C(F)(F)F)c(C(F)(F)C(F)(F)F)nn3C)cs2)sc1C#N)C1CC1` [Compound 28, 2-cyano-N-cyclopropyl-N-methyl-5-[4-[2-methyl-5-(1,1,2,2,2-pentafluoroethyl)-4-(trifluoromethyl)pyrazol-3-yl]-2-thienyl]thiophene-3-carboxamide] as the molecule, how does the percent control (mortality, anti-feedant effect or growth inhibition) at 200 ppm (Spodoptera littoralis) read?
**A.** ≥ 80%

**Q.** And the percent effect (mortality or growth inhibition) at 200 ppm (Diabrotica balteata)?
**A.** ≥ 80%

**Q.** And the mortality at 200 ppm (Tetranychus urticae)?
**A.** ≥ 80%

**Q.** And the mortality at 200 ppm (Thrips tabaci)?
**A.** ≥ 80%

**Q.** And the percent effect (mortality or growth inhibition) at 200 ppm (Euschistus heros)?
**A.** ≥ 80%

**Q.** And the percent effect (mortality or growth inhibition) at 200 ppm (Plutella xylostella)?
**A.** ≥ 80%

**Q.** Which melting point does the source give for `CCN(C(=O)c1cc(-c2cn(-c3c(C(F)(F)F)c(C(F)(F)C(F)(F)F)nn3C)nn2)sc1C#N)C1(C#N)CC1` [Compound 6, 2-cyano-N-(1-cyanocyclopropyl)-N-ethyl-5-[1-[2-methyl-5-(1,1,2,2,2-pentafluoroethyl)-4-(trifluoromethyl)pyrazol-3-yl]triazol-4-yl]thiophene-3-carboxamide] here?
**A.** 62 to 64 °C

**Q.** Which percent control (mortality, anti-feedant effect or growth inhibition) at 200 ppm (Spodoptera littoralis) does the source give for `Cn1nc(C(F)(F)C(F)(F)F)c(C(F)(F)F)c1-n1cc(-c2cc(C(=O)NC3CC3)c(C#N)s2)nn1` [Compound 1, 2-cyano-N-cyclopropyl-5-[1-[2-methyl-5-(1,1,2,2,2-pentafluoroethyl)-4-(trifluoromethyl)pyrazol-3-yl]triazol-4-yl]thiophene-3-carboxamide] here?
**A.** ≥ 80%

**Q.** What about the percent effect (mortality or growth inhibition) at 200 ppm (Diabrotica balteata) of the same molecule?
**A.** ≥ 80%

**Q.** And the mortality at 200 ppm (Tetranychus urticae)?
**A.** ≥ 80%

**Q.** And the mortality at 200 ppm (Thrips tabaci)?
**A.** ≥ 80%

**Q.** And the percent effect (mortality or growth inhibition) at 200 ppm (Euschistus heros)?
**A.** ≥ 80%

**Q.** And the percent effect (mortality or growth inhibition) at 200 ppm (Plutella xylostella)?
**A.** ≥ 80%

**Q.** With `CN(C(=O)c1cc(-c2cc(-c3c(C(F)(F)F)c(C(F)(F)C(F)(F)F)nn3C)no2)sc1C#N)C1(C#N)CC1` [Compound 17, 2-cyano-N-(1-cyanocyclopropyl)-N-methyl-5-[3-[2-methyl-5-(1,1,2,2,2-pentafluoroethyl)-4-(trifluoromethyl)pyrazol-3-yl]isoxazol-5-yl]thiophene-3-carboxamide] as the molecule, how does the percent control (mortality, anti-feedant effect or growth inhibition) at 200 ppm (Spodoptera littoralis) read?
**A.** ≥ 80%

**Q.** And the percent effect (mortality or growth inhibition) at 200 ppm (Diabrotica balteata)?
**A.** ≥ 80%

**Q.** And the mortality at 200 ppm (Tetranychus urticae)?
**A.** ≥ 80%

**Q.** What about the mortality at 200 ppm (Thrips tabaci) of the same molecule?
**A.** ≥ 80%

**Q.** And the percent effect (mortality or growth inhibition) at 200 ppm (Euschistus heros)?
**A.** ≥ 80%

**Q.** And the percent effect (mortality or growth inhibition) at 200 ppm (Plutella xylostella)?
**A.** ≥ 80%

**Q.** What does the source list for `Cn1nc(C(F)(F)C(F)(F)F)c(C(F)(F)F)c1-n1cc(-c2cc(C(=O)NC3CC3)c(Cl)s2)nn1` [Compound 7, 2-chloro-N-cyclopropyl-5-[1-[2-methyl-5-(1,1,2,2,2-pentafluoroethyl)-4-(trifluoromethyl)pyrazol-3-yl]triazol-4-yl]thiophene-3-carboxamide]?
**A.** percent control (mortality, anti-feedant effect or growth inhibition) at 200 ppm (Spodoptera littoralis): ≥ 80%; percent effect (mortality or growth inhibition) at 200 ppm (Diabrotica balteata): ≥ 80%; mortality at 200 ppm (Tetranychus urticae): ≥ 80%; mortality at 200 ppm (Thrips tabaci): ≥ 80%; percent effect (mortality or growth inhibition) at 200 ppm (Euschistus heros): ≥ 80%; percent effect (mortality or growth inhibition) at 200 ppm (Plutella xylostella): ≥ 80%

**Q.** Which percent control (mortality, anti-feedant effect or growth inhibition) at 200 ppm (Spodoptera littoralis) does the source give for `Cn1nc(C(F)(F)C(F)(F)F)c(C(F)(F)F)c1-c1cc(-c2cc(C(=O)NC3CC3)c(C#N)s2)on1` [Compound 13, 2-cyano-N-cyclopropyl-5-[3-[2-methyl-5-(1,1,2,2,2-pentafluoroethyl)-4-(trifluoromethyl)pyrazol-3-yl]isoxazol-5-yl]thiophene-3-carboxamide] here?
**A.** ≥ 80%

**Q.** And the percent effect (mortality or growth inhibition) at 200 ppm (Diabrotica balteata)?
**A.** ≥ 80%

**Q.** And the mortality at 200 ppm (Tetranychus urticae)?
**A.** ≥ 80%

**Q.** What about the mortality at 200 ppm (Thrips tabaci) of the same molecule?
**A.** ≥ 80%

**Q.** And the percent effect (mortality or growth inhibition) at 200 ppm (Euschistus heros)?
**A.** ≥ 80%

**Q.** What about the percent effect (mortality or growth inhibition) at 200 ppm (Plutella xylostella) of the same molecule?
**A.** ≥ 80%

**Q.** With `CN(C(=O)c1cc(-c2cn(-c3c(C(F)(F)F)c(C(F)(F)C(F)(F)F)nn3C)nn2)sc1C#N)C1(C#N)CC1` [Compound 5, 2-cyano-N-(1-cyanocyclopropyl)-N-methyl-5-[1-[2-methyl-5-(1,1,2,2,2-pentafluoroethyl)-4-(trifluoromethyl)pyrazol-3-yl]triazol-4-yl]thiophene-3-carboxamide] as the molecule, how does the melting point read?
**A.** 185 to 187 °C

**Q.** Which results are given for `CCN(C(=O)c1cc(-c2cn(-c3c(C(F)(F)F)c(C(F)(F)C(F)(F)F)nn3C)nn2)sc1C#N)C1CC1` [Compound 3, 2-cyano-N-cyclopropyl-N-ethyl-5-[1-[2-methyl-5-(1,1,2,2,2-pentafluoroethyl)-4-(trifluoromethyl)pyrazol-3-yl]triazol-4-yl]thiophene-3-carboxamide]?
**A.** percent control (mortality, anti-feedant effect or growth inhibition) at 200 ppm (Spodoptera littoralis): ≥ 80%; percent effect (mortality or growth inhibition) at 200 ppm (Diabrotica balteata): ≥ 80%; mortality at 200 ppm (Tetranychus urticae): ≥ 80%; mortality at 200 ppm (Thrips tabaci): ≥ 80%; percent effect (mortality or growth inhibition) at 200 ppm (Euschistus heros): ≥ 80%; percent effect (mortality or growth inhibition) at 200 ppm (Plutella xylostella): ≥ 80%

**Q.** Which results are given for `CN(C(=O)c1cc(-c2cc(-c3c(C(F)(F)F)c(C(F)(F)C(F)(F)F)nn3C)no2)sc1C#N)C1CC1` [Compound 14, 2-cyano-N-cyclopropyl-N-methyl-5-[3-[2-methyl-5-(1,1,2,2,2-pentafluoroethyl)-4-(trifluoromethyl)pyrazol-3-yl]isoxazol-5-yl]thiophene-3-carboxamide]?
**A.** percent control (mortality, anti-feedant effect or growth inhibition) at 200 ppm (Spodoptera littoralis): ≥ 80%; percent effect (mortality or growth inhibition) at 200 ppm (Diabrotica balteata): ≥ 80%; mortality at 200 ppm (Tetranychus urticae): ≥ 80%; mortality at 200 ppm (Thrips tabaci): ≥ 80%; percent effect (mortality or growth inhibition) at 200 ppm (Euschistus heros): ≥ 80%; percent effect (mortality or growth inhibition) at 200 ppm (Plutella xylostella): ≥ 80%

**Q.** With `Cn1nc(C(F)(F)C(F)(F)F)c(C(F)(F)F)c1-c1csc(-c2cc(C(=O)NC3CC3)c(C#N)s2)c1` [Compound 27, 2-cyano-N-cyclopropyl-5-[4-[2-methyl-5-(1,1,2,2,2-pentafluoroethyl)-4-(trifluoromethyl)pyrazol-3-yl]-2-thienyl]thiophene-3-carboxamide] as the molecule, how does the percent control (mortality, anti-feedant effect or growth inhibition) at 200 ppm (Spodoptera littoralis) read?
**A.** ≥ 80%

**Q.** What about the percent effect (mortality or growth inhibition) at 200 ppm (Diabrotica balteata) of the same molecule?
**A.** ≥ 80%

**Q.** What about the mortality at 200 ppm (Tetranychus urticae) of the same molecule?
**A.** ≥ 80%

**Q.** What about the mortality at 200 ppm (Thrips tabaci) of the same molecule?
**A.** ≥ 80%

**Q.** What about the percent effect (mortality or growth inhibition) at 200 ppm (Euschistus heros) of the same molecule?
**A.** ≥ 80%

**Q.** And the percent effect (mortality or growth inhibition) at 200 ppm (Plutella xylostella)?
**A.** ≥ 80%

**Q.** For `CCN(C(=O)c1cc(-c2cc(-c3c(C(F)(F)F)c(C(F)(F)C(F)(F)F)nn3C)cs2)sc1C#N)C1CC1` [Compound 29, 2-cyano-N-cyclopropyl-N-ethyl-5-[4-[2-methyl-5-(1,1,2,2,2-pentafluoroethyl)-4-(trifluoromethyl)pyrazol-3-yl]-2-thienyl]thiophene-3-carboxamide], which percent control (mortality, anti-feedant effect or growth inhibition) at 200 ppm (Spodoptera littoralis) is on record?
**A.** ≥ 80%

**Q.** And the percent effect (mortality or growth inhibition) at 200 ppm (Diabrotica balteata)?
**A.** ≥ 80%

**Q.** And the mortality at 200 ppm (Tetranychus urticae)?
**A.** ≥ 80%

**Q.** And the mortality at 200 ppm (Thrips tabaci)?
**A.** ≥ 80%

**Q.** And the percent effect (mortality or growth inhibition) at 200 ppm (Euschistus heros)?
**A.** ≥ 80%

**Q.** And the percent effect (mortality or growth inhibition) at 200 ppm (Plutella xylostella)?
**A.** ≥ 80%
